Where two headings read alike, the source gives them in different places.
Biological target: T1, AChE from electric eel (Electrophorus electricus, UniProt O42275)
T1 construct: purchased Sigma (St. Louis, USA)
Assay: Quantitative colorimetric microplate assay based on Ellman's method for AChE inhibitory activity
Type: biochemical
Settings: for IC50: read-out: IC50, inhibition of AchE (converted)
Protocol: The tested concentrations of the samples ranged from 1.56 to 200 μg/mL. Based on the resulting curves, the IC50 values for AChE inhibition were calculated using the respective curves’ equations (Table 1).
Acetylthiocholine iodide (ATCI) and chelidonine were obtained from Fluka (Buchs, Switzerland). Fast Blue B salt (FBS) and silica gel 60 were from Merck (Darmstadt, Germany). The solvents MeOH, EtOAc, CH2Cl2, and CHCl3 were purchased from VWR (Vienna, Austria). Two different buffer systems were used (buffer A: 50 mM Tris-HCl, pH 7.9 containing 0.1% BSA; buffer B: 50 mM Tris-HCl, pH 7.9 containing 0.1 M NaCl and 0.02 M MgCl2·6H2O).
A quantitative colorimetric assay based on Ellman’s method was used to measure the AChE inhibitory activities of the substances. Briefly, in a 96-well plate, 25 μL of 15 mM ATCI, 125 μL of 3 mM DTNB in buffer B, 50 μL of buffer A, and 25 μL of the extract or the isolated substances (from 15.6 μg/mL to 2.0 mg/mL in 10% DMSO) were thoroughly mixed and the absorbance was read at 405 nm five times every 15 s. Finally, 25 μL of AChE (0.22 U/mL in buffer A) were added and the plate was incubated at 25°C for 10 minutes. Then the absorbance was measured again eight times every 15 s. A 10% DMSO solution was used as the negative control. To compensate for any increase in absorbance due to the color of the extracts or spontaneous hydrolysis of the substrate, the absorbance before the addition of the enzyme was subtracted from the absorbance after adding the enzyme. The assay was repeated three times for every concentration.

[1] = n=3, 25°C, 10 min incubation, tested 1.56 to 200 μg/mL
[2] = n=3, same values given in molar unit

T1 sequence (O42275 24-633): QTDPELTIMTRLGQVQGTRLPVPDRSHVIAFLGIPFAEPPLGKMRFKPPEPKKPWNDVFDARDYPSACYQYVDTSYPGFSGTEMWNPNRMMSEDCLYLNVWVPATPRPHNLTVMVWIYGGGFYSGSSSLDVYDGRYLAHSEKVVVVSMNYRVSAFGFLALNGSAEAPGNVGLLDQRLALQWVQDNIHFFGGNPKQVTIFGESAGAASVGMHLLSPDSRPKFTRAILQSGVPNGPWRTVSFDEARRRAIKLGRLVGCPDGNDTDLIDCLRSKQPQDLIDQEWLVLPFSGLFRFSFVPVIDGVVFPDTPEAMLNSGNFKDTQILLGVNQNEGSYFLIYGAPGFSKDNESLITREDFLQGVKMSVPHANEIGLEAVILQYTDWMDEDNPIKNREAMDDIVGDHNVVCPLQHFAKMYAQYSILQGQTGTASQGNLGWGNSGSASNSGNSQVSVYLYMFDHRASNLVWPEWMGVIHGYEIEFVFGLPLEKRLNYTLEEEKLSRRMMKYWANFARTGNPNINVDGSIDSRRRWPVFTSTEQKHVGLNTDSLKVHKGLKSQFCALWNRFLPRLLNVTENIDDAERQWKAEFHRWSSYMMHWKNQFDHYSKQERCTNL

SMILES | AChE inhibitory activity (in words) | IC50 [1] [µM] | IC50 [2] [µM] | times more active than compounds 1, 2 and 4 (AChE inhibition) (comparison of IC50 values)
C=C[C@]1(C)CC[C@@H](C(C)C(O)C(=O)C=C(C)C)C12C(=O)Oc1cc(OC)ccc1C2=O (stereo partly drawn) [Compound 1, (2′S,5′S)-2′-ethenyl-5′-(3hydroxy-6-methyl-4-oxohept-5-en-2-yl)-7-methoxy-2′-methyl-4H-spiro[chromene-3,1′-cyclopentane]-2,4-dione] | only low activities | 181 | 181 | 
C=C[C@]1(C)CC[C@H]([C@@H](C)C(=O)[C@H](O)C=C(C)C)C12C(=O)Oc1cc(OC)ccc1C2=O (stereo partly drawn) [Compound 2, (2′S,5′R)-2′-ethenyl-5′-[(2R,4R)-4-hydroxy-6-methyl-3-oxohept-5-en-2-yl]-7-methoxy-2′-methyl-4H-spiro[chromene-3,1′-cyclopentane]-2,4-dione] | only low activities | 236 | 237 | 
CC(C)=CCC/C(C)=C/CC/C(C)=C/CCC(=O)c1ccc(O)cc1O [Compound 3, (4E,8E)-1-(2,4-dihydroxyphenyl)-5,9,13-trimethyltetradeca-4,8,12-trien-1-one] |  | 23.4 | 23.5 | about 10 times
CC(C)=CCC/C(C)=C/CC/C(C)=C/Cc1c(O)c2ccc(O)cc2oc1=O [Compound 4, 4,7-dihydroxy-3-[(2E,6E)-3,7,11-trimethyldodeca-2,6,10-trien-1-yl]-2H-chromen-2-one] | only low activities | 201 | 201 | 

Reference: paper PMC3791940, “Compounds from Gum Ammoniacum with Acetylcholinesterase Inhibitory Activity” (Scientia Pharmaceutica, 2013)
